Results published in patent publication US20210253562A1, “ACYLSUFONAMIDE COMPOUNDS USEFUL AS EP3 RECEPTOR ANTAGONISTS” (Janssen Pharmaceutica NV, priority 2018, published 2021).

Experiments:
[1] = target: T1, EP3 membrane (EP3 receptor) (Homo sapiens, UniProt P43115); experiment: [3H]-PGE2 binding; EP3 competition binding (SPA)
T1 construct: purchased Millipore HTS092M
T1 sequence (P43115 1-390): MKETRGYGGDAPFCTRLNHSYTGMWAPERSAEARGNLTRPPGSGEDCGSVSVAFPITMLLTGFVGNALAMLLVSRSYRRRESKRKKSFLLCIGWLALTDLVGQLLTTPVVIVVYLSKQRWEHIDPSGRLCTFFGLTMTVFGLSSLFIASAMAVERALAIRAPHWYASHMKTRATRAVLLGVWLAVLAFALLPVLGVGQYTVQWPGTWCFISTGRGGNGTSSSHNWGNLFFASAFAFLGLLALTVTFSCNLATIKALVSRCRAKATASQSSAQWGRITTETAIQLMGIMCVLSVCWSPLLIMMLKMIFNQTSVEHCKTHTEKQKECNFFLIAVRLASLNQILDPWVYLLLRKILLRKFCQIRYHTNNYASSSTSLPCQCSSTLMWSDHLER
Summary of the method: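 SPA competition at room temperature, 2 h: EP3 membranes 2 μg/well, 2 nM [3H]-PGE2, 0.1% DMSO, in Tris/MgCl2/EDTA buffer pH 7.4. Compounds in 1:3 serial dilution; scintillation read; Ki by one-site nonlinear fit.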

[2] = target: T2, CHO cells over-expressing the EP3 receptor (Homo sapiens, UniProt P43115); experiment: CHO cell cAMP assay; EP3 cAMP antagonist dose response (sulprostone reference), HTRF; format: cell-based; settings: sulprostone 700 nM (EC80) and FSK 2 μM (EC70); read-out: CHO_cAMP IC50
T2 construct: expressed in transfected cells; host or cells: CHO cells
T2 sequence (P43115 1-390): T1 sequence (P43115 1-390)
Description: Biological Example 2: CHO Cell cAMP Assay
This assay monitored the cAMP generation in CHO cells over-expressing the EP3 receptor in the presence or absence of antagonist stimulated with Forskolin (FSK, CAS No. 66428-89-5) and a known EP3 Agonist (sulprostone, CAS No. 60325-46-4). For detection, a homogeneous competitive immunoassay (Time Resolved Fluorescence Energy Transfer (hTR-FRET)) was used.
Cells (6K cells per well) were plated in Poly-D-Lysine coated plates the day before the assay was to be run and were incubated at 37° C. One hour before the assay the media was removed and replaced with assay buffer (500 mL HBSS (+Ca)+2.5 mL 1M HEPES+6.66 mL 7.5% BSA) (starved at 37° C.). At the start of the assay the buffer was removed from the cells and replaced with buffer containing test compound(s). Sulprostone at an EC80 dose (700 nM) and FSK at an EC70 dose (2 μM) were added to initiate the reaction (37° C. for 30 minutes).
FSK increases cAMP production and sulprostone decreases cAMP production produced by FSK. In this assay, EP3 antagonists will increase the cAMP to the level of cAMP generated by FSK alone.
The reaction was terminated with the addition of cAMP detection reagents (labeled cAMP and labeled cAMP antibody in lysis buffer (HTRF reagent, which utilizes a cryptate-labeled anti-cAMP and d2-labeled cAMP-d2 is an HTRF acceptor fluorophore)). Approximately one hour later the plates were read on an Envision (Perkin Elmer) in HTRF mode. Well results were calculated based on a ratio of counts at 665 nm and 615 nm (data output was a calculation of the ratio: (read @665 nm/read @ 615 nm)*1000. For test compounds dosed serially, well results were converted to nM cAMP using a cAMP standard run on each plate. nM cAMP from a set of wells dosed with test compound(s) were plotted. nM cAMP was calculated for each well from a standard curve located on each plate (P1-12 and P13-24) by first calculating the slope and deriving the intercept(b):
[formula] NScAMP_s tan dard_cruve=m(nM cAMP_s tan dard_curve)+b
NSP, NSN, NSsample were converted to nM cAMP using the following equation: […]
IC50 values were determined from a […] (Hill equation) of a single 11-point compound dosing. A best-fit curve was determined by the minimum sum of squares method plotting cAMP produced vs compound concentration.

SMILES | Ki [1] [nM] | IC50 [2] [nM]
O=C(C/C=C1\CCCc2cnn(Cc3ccc(Cl)cc3Cl)c21)NS(=O)(=O)c1cccs1 [Compound #20, (E)-3-(1-(2,4-dichlorobenzyl)-1,4,5,6-tetrahydro-7H-indazol-7-ylidene)-N-(thiophen-2-ylsulfonyl)propenamide] | 280 | 1000
O=C(C/C=C1\CCCc2cnn(Cc3ccc(Cl)cc3Cl)c21)NS(=O)(=O)c1nc2ccccc2s1 [Compound #21] | 58 | 330
O=C(C/C=C1\CCCc2cnn(Cc3ccc(Cl)cc3Cl)c21)NS(=O)(=O)c1cnc2ccccc2c1 [Compound #22, (E)-3-(1-(2,4-dichlorobenzyl)-1,4,5,6-tetrahydro-7H-indazol-7-ylidene)-N-(quinolin-3-ylsulfonyl)propenamide] | 373 | 2900
COc1ccc(S(=O)(=O)NC(=O)C/C=C2\CCCc3cnn(Cc4ccc(Cl)cc4Cl)c32)cc1 [Compound #23, (E)-3-(1-(2,4-dichlorobenzyl)-1,4,5,6-tetrahydro-7H-indazol-7-ylidene)-N-((4-methoxyphenyl)sulfonyl)propenamide] | 256 | 453
O=C(CC/C=C1\CCCc2cnn(Cc3ccc(Cl)cc3Cl)c21)NS(=O)(=O)c1ccc(Cl)cc1 [Compound #24, (E)-N-((4-chlorophenyl)sulfonyl)-4-(1-(2,4-dichlorobenzyl)-1,4,5,6-tetrahydro-7H-indazol-7-ylidene)butanamide] | 3 | 6
O=C(C/C=C1\CCCc2cnn(Cc3ccc(Cl)cc3Cl)c21)NS(=O)(=O)c1cc2ccccc2s1 [Compound #25, (E)-N-(benzo[b]thiophen-2-ylsulfonyl)-3-(1-(2,4-dichlorobenzyl)-1,4,5,6-tetrahydro-7H-indazol-7-ylidene)propenamide] | 51 | 251
O=C(C/C=C1\CCCc2cnn(Cc3ccc(Cl)cc3Cl)c21)NS(=O)(=O)c1cc2ccccc2o1 [Compound #26, (E)-N-(benzofuran-2-ylsulfonyl)-3-(1-(2,4-dichlorobenzyl)-1,4,5,6-tetrahydro-7H-indazol-7-ylidene)propenamide] | 85 | 699
O=C(NC/C=C1\CCCc2cnn(Cc3ccc(Cl)cc3Cl)c21)NS(=O)(=O)c1cc2ccccc2s1 [Compound #27, (E)-N-((2-(1-(2,4-dichlorobenzyl)-1,4,5,6-tetrahydro-7H-indazol-7-ylidene)ethyl)carbamoyl)benzo[b]thiophene-2-sulfonamide] | 5 | 13
O=C(NC/C=C1\CCCc2cnn(Cc3ccc(Cl)cc3Cl)c21)NS(=O)(=O)c1cc2ccccc2o1 [Compound #28, (E)-N-((2-(1-(2,4-dichlorobenzyl)-1,4,5,6-tetrahydro-7H-indazol-7-ylidene)ethyl)carbamoyl)benzofuran-2-sulfonamide] | 6 | 27
O=C(CC/C=C1\CCCc2cnn(Cc3ccc(Cl)cc3Cl)c21)NS(=O)(=O)c1ccc(Cl)s1 [Compound #29, (E)-N-((5-chlorothiophen-2-yl)sulfonyl)-4-(1-(2,4-dichlorobenzyl)-1,4,5,6-tetrahydro-7H-indazol-7-ylidene)butanamide] | 1 | 2

The remaining lines, values ahead:

Ki [1] [nM] | IC50 [2] [nM] | SMILES
26 | 35 | COc1ccc(S(=O)(=O)NC(=O)CC/C=C2\CCCc3cnn(Cc4ccc(Cl)cc4Cl)c32)cc1 [Compound #30, (E)-4-(1-(2,4-dichlorobenzyl)-1,4,5,6-tetrahydro-7H-indazol-7-ylidene)-N-((4-methoxyphenyl)sulfonyl)butanamide]
7 | 13 | O=C(CC/C=C1\CCCc2cnn(Cc3ccc(Cl)cc3Cl)c21)NS(=O)(=O)c1cc2ccccc2s1 [Compound #31, (E)-N-(benzo[b]thiophen-2-ylsulfonyl)-4-(1-(2,4-dichlorobenzyl)-1,4,5,6-tetrahydro-7H-indazol-7-ylidene)butanamide]
168 | 1300 | O=C(NS(=O)(=O)c1ccc(Cl)cc1)OC/C=C1\CCCc2c(C(F)F)nn(Cc3ccc(Cl)cc3Cl)c21 [Compound #32, (E)-2-(1-(2,4-dichlorobenzyl)-3-(difluoromethyl)-1,4,5,6-tetrahydro-7H-indazol-7-ylidene)ethyl ((4-chlorophenyl)sulfonyl)carbamate]
6 | 9 | CN(C/C=C1\CCCc2cnn(Cc3ccc(Cl)cc3Cl)c21)C(=O)NS(=O)(=O)c1ccc(Cl)cc1 [Compound #33, (E)-4-chloro-N-((2-(1-(2,4-dichlorobenzyl)-1,4,5,6-tetrahydro-7H-indazol-7-ylidene)ethyl)(methyl)carbamoyl)benzenesulfonamide]
3 | 11 | O=C(NS(=O)(=O)c1cc(Cl)c(Cl)s1)OC/C(F)=C1\CCCc2cnn(Cc3ccc(Cl)cc3Cl)c21 [Compound #34, (Z)-2-(1-(2,4-dichlorobenzyl)-1,4,5,6-tetrahydro-7H-indazol-7-ylidene)-2-fluoroethyl ((4,5-dichlorothiophen-2-yl)sulfonyl)carbamate]
542 | 2800 | O=C(NS(=O)(=O)c1cc(Cl)c(Cl)s1)OC/C(F)=C1/CCCc2cnn(Cc3ccc(Cl)cc3Cl)c21 [Compound #35, (E)-2-(1-(2,4-dichlorobenzyl)-1,4,5,6-tetrahydro-7H-indazol-7-ylidene)-2-fluoroethyl ((4,5-dichlorothiophen-2-yl)sulfonyl)carbamate]
108 | 87 | O=C(NS(=O)(=O)c1ccc(Cl)cc1)OC/C=C1\CC(F)(F)Cc2cnn(Cc3ccc(Cl)cc3Cl)c21 [Compound #37, (E)-2-(1-(2,4-dichlorobenzyl)-5,5-difluoro-1,4,5,6-tetrahydro-7H-indazol-7-ylidene)ethyl ((4-chlorophenyl)sulfonyl)carbamate]
3 | 7 | COc1ccc(Cl)cc1S(=O)(=O)NC(=O)CC/C=C1\CCCc2cnn(Cc3ccc(Cl)cc3Cl)c21 [Compound #38, (E)-N-((5-chloro-2-methoxyphenyl)sulfonyl)-4-(1-(2,4-dichlorobenzyl)-1,4,5,6-tetrahydro-7H-indazol-7-ylidene)butanamide]
62 | 114 | COc1ccccc1S(=O)(=O)NC(=O)NC/C=C1\CCCc2cnn(Cc3ccc(Cl)cc3Cl)c21 [Compound #39, (E)-N-((2-(1-(2,4-dichlorobenzyl)-1,4,5,6-tetrahydro-7H-indazol-7-ylidene)ethyl)carbamoyl)-2-methoxybenzenesulfonamide]
1 | 1 | O=C(NC/C(F)=C1\CCCc2cnn(Cc3ccc(Cl)cc3Cl)c21)NS(=O)(=O)c1cc(Cl)c(Cl)s1 [Compound #40, (Z)-4,5-dichloro-N-((2-(1-(2,4-dichlorobenzyl)-1,4,5,6-tetrahydro-7H-indazol-7-ylidene)-2-fluoroethyl)carbamoyl)thiophene-2-sulfonamide]
6 | 9 | COc1ccc(Br)cc1S(=O)(=O)NC(=O)CC/C=C1\CCCc2cnn(Cc3ccc(Cl)cc3Cl)c21 [Compound #41, (E)-N-((5-bromo-2-methoxyphenyl)sulfonyl)-4-(1-(2,4-dichlorobenzyl)-1,4,5,6-tetrahydro-7H-indazol-7-ylidene)butanamide]
